The text below walks through data of patent publication EP0741709B1, “AROMATIC 2-AMINO-IMIDAZOLE DERIVATIVES AS ALPHA-2A ADRENOCEPTOR AGONISTS” (Allergan Sales, Inc., priority 1994, dated 1995).

This assay concerns the target T1, rat α2B adrenoceptor (Rattus norvegicus, UniProt P19328).
T1 construct: expressed in transfected cells; host or cells: CHO (CHO-RNG)
T1 sequence (P19328 1-453): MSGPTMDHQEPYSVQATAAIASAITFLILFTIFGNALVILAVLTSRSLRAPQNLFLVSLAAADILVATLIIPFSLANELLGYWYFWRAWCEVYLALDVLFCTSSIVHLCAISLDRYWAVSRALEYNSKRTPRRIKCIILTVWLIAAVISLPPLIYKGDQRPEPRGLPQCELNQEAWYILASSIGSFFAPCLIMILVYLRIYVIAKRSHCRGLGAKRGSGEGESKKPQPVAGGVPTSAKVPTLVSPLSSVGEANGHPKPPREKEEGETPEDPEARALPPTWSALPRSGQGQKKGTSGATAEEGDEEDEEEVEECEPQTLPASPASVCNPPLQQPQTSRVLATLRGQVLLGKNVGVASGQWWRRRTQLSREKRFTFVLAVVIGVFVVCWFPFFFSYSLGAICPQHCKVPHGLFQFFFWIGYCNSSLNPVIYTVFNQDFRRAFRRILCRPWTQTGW
Nature of the assay: Receptor binding assay, [3H]rauwolscine, CHO-RNG cell membranes. To be noted: 22°C, 30 minutes. On the procedure: (§1) Cell preparation: Chinese hamster ovary (CHO) cells expressing the human α2A and human α2C (CHO-C10 and CHO-C4 respectively) receptors and CHO cells (CHO-RNG) expressing the rat α2B adrenoceptor were grown to near confluence in Dulbecco's modified Eagle's medium supplemented with 10% fetal bovine serum using standard cell culture methods. Cells were harvested by scraping and placed into cold buffer of the following composition: 50 mM Tris-HCl, 5 mM EDTA, pH 7.4). Cells were then homogenized with a Polytron homogenizer for 2 X 10 sec at setting #7, and centrifuged for 20 minutes at 49,000 x g. The pellet fraction was washed (resuspended in Tris-HCl, pH 8 buffer and centrifuged for 15-20 minutes at 49,000 x g) 2 times and stored at -100°C until binding assay.
Binding Studies: The radioligands [^3H]rauwolscine (specific activity 80 Ci/mmol) and [^3H]prazosin (specific activity 76 Ci/mmol) were obtained from New England Nuclear, Boston, MA. Frozen membrane pellet was resuspended in 25 mM glycine/glycine, pH 7.5 and incubated with radioligand under the following conditions: CHO-C10, CHO-RNG, CHO-C4-[^3H]rauwolscine, 22°C, 30 minutes; RKC-[^3H]rauwolscine, 0°C, 120 minutes; and, HCC-[^3H]prazosin, 22°C, 30 minutes in a final volume of 500 ul. At the end of the incubation period, the samples were filtered through glass filters (Whatman GF/B) in a 96 well cell harvester and rapidly washed four times with 4 mL of iced-cold 50 mM Tris-HCl buffer. The filters were then oven dried and transferred to scintillation vials containing 10 mL of Beckman's Ready Protein® scintillation cocktail for counting. Specific binding defined by 10 uM phentolamine for competition studies were as follows: 2.4 nM [^3H]brimonidine-RbICB 62%; 2.4 nM [^3H]rauwolscine-RbICB 75%; 2 nM [^3H]rauwolscine-RbKc 88%; 0.3 nM [^3H] rauwolscine-CHO-C10 99%; 0.4 nM [^3H]rauwolscine-CHO-RNG 99%, 0.3 nM [^3H]prazosin 87%; and 1 nM [^3H]rauwolscine-CHO-C4 90%. Protein concentrations were determined with a protein assay kit from Bio Rad. Binding isotherms, equilibrium dissociation and affinity constants were analyzed and determined by the non-linear least squares curve fitting programs EBDA (BioSoft) or AccuFit Competition/Saturation by Beckman.
as §1, with “α2A (CHO-C10)” for “α2A”, “and” for “and human α2C (CHO-C10 and CHO-C4 respectively) receptors and CHO cells (CHO-RNG) expressing”, “α2B(CHO-RNG) human α2Aadrenoceptors” for “α2B adrenoceptor”
The radioligands [^3H)rauwolscine (specific activity 80 Ci/mmol) and [^3H]prazosin (specific activity 76 Ci/mmol) were obtained from New England Nuclear, Boston, MA. Frozen membrane pellet was resuspended in 25 mM glycine/glycine, pH 7.4 and incubated with radioligand under the following conditions: CHO-C10, CHO-RNG, CHO-C4-[^3H]rauwolscine, 22°C, 30 min.; and, HCC-[^3H]prazosin, 22°C, 30 minutes in a final volume of 500 ul. At the end of the incubation period, the samples were filtered through glass fiber filters (Whatman GF/B) in a 96 well cell harvester and rapidly washed four times with 4 mL of iced-cold 50 mM Tris-CHl buffer. The filters were then oven dried and transferred to scintillation vials containing 5 mL of Beckman's Ready Protein® scintillation cocktail for counting. Specific binding defined by 10 uM phentolamine for competition studies were as follows: 0.3 nM[^3H] rauwolscine-CHO-C10 99%; 0.4 nM [^3H]rauwolscine-CHO-RNG 99%, and 0.3 nM [^3H] prazosin-HCC 87%. Protein concentrations were determined with a protein assay kit from Bio Rad. […]

Broadly, the Ki is a dissociation constant, usually derived from enzyme kinetics or from competition with a known ligand. Compound `c1ccc(Nc2ncc[nH]2)cc1` returned a Ki of 1890 nM.

Regarding `Clc1ccccc1Nc1ncc[nH]1`, the Ki turned out to be 1940 nM.

Regarding `Brc1ccccc1Nc1ncc[nH]1`, the affinity, expressed as Ki, was 1450 nM.

With `Clc1cccc(Cl)c1Nc1ncc[nH]1`, the Ki turned out to be 587 nM.

With `Cc1ccccc1Nc1ncc[nH]1`, the Ki was determined as 561 nM.

`Brc1c(Nc2ncc[nH]2)ccc2nccnc12` gave a Ki of 12900 nM.

Compound `Cc1c(Nc2ncc[nH]2)ccc2nccnc12` gave a Ki of 1160 nM.

In turn, `Cc1c(Nc2ncc[nH]2)ccc2c1OCCO2` displayed a Ki of 82 nM.

For `c1cc2c(c(Nc3ncc[nH]3)c1)CCCC2`, the Ki worked out at 152 nM.

For `Cc1c(Nc2ncc[nH]2)ccc2c1NCCO2`, the Ki amounted to 436 nM.

As for `COc1ccc(Nc2ncc[nH]2)c(C)c1`, the Ki was determined as 434 nM.
